Data published in patent publication US20260325487A1 (BS BIOTECHNA SPOLKA AKCYJNA, priority 2023, published 2026).
Where two headings read alike, the source gives them in different places.

Tests used:
Format in all cases: cell-based
[1] = test system: LN229; experiment: SRB anti-proliferative assay, LN229, with CalcuSyn combination index (Example 1); settings: Homo sapiens, LN-229, 72 h, read-out: Zah. (inhibition of proliferation)
Procedure: (§1) Cells were thawed from ampoules stored in liquid nitrogen and cultured in petri dishes in appropriate culture medium according to Table 2, in a humidified 5% CO2 atmosphere at 37° C. Cells were passaged twice weekly using EDTA-Trypsin solution, pH 8. Counted cells with a viability of at least 90% as assessed with Trypan-Blue solution were used for anti-proliferative assays.
(§2) Twenty-four hours before the addition of the test compounds/combinations, cells were seeded into 384-well plates at 50 μL/well and a density of 10^3 cells/well, in the appropriate culture medium.
(§3) Solutions of the compounds were diluted in the test medium-RPMI-1640 and Opti-MEM in a 1:1 ratio, and the medium was supplemented with 2 mM glutamine and 5% fetal bovine serum FBS. After 72 h, colourimetric assessment of cell growth was performed by SRB. […] Unbound dye was removed by washing the plates (4×) in 1% (v/v) acetic acid, and protein-bound dye was extracted with 10 mM unbuffered Tris base and the optical density (A=540 nm) was determined in a BioTek Synergy H4 Hybrid computer microplate reader (BioTek Instruments USA). The entire washing/staining procedure was performed using a BioTek EL406 washing station (BioTek Instruments USA). The raw absorbance results were analysed in Microsoft Excel software using the formula:
(§4) [formula] • Where: • % Zahlnh-inhibition of proliferation • Am—absorbance of wells without cells (medium) • Ak—absorbance of control wells (cells treated with pure culture medium) • Ap—absorbance of wells treated with compounds
(§5) Each compound at the indicated concentrations was tested in triplicate in one experiment. Each experiment was repeated three times. Data analysis was supplemented with synergy assessment using CalcuSyn software. […] A CI value below 0.8 indicates synergism, 0.8-1.2 an additive effect, above 1.2 an antagonism.

[2] = test system: SK-MEL3; experiment: SRB anti-proliferative assay, SK-MEL3, with CalcuSyn combination index (Example 1); settings: Homo sapiens, SK-MEL3, 72 h, read-out: Zah. (inhibition of proliferation)
Procedure: as §1, §2, §3, §4, §5

[3] = test system: A375; experiment: SRB anti-proliferative assay, A375, with CalcuSyn combination index (Example 1); settings: Homo sapiens, A-375, 72 h, read-out: Zah. (inhibition of proliferation)
Procedure: as §1, §2, §3, §4, §5

[4] = test system: NCI-H226; experiment: SRB anti-proliferative assay, NCI-H226, molecular combination and nanoparticles, with combination index (Example III); settings: Homo sapiens
Procedure: (§6) Cells were thawed from ampoules stored in liquid nitrogen and cultured in petri dishes in the appropriate culture medium according to Table 16, in a humidified 5% CO2 atmosphere at 37° C. Cells were passaged twice weekly using EDTA-Trypsin solution, pH 8, as a separating agent. Counted cells with a viability of at least 90% as assessed with Trypan-Blue solution were used for anti-proliferation assays.
(§7) Twenty-four hours before the addition of the test compounds/combinations, cells were seeded into 384-well plates at 50 μL/well and a density of 10^3 cells/well, in the appropriate culture medium. […] Solutions of the compounds were diluted in the test medium—RPMI-1640 and Opti-MEM in a 1:1 ratio, and the medium was supplemented with 2 mM glutamine and 5% fetal bovine serum FBS.
as §3, with “After” for “Solutions of the compounds were diluted in the test medium-RPMI-1640 and Opti-MEM in a 1:1 ratio, and the medium was supplemented with 2 mM glutamine and 5% fetal bovine serum FBS. After”
as §4, §5

[5] = test system: NCI-H1975; experiment: SRB anti-proliferative assay, NCI-H1975, with CalcuSyn combination index (Example 1); settings: Homo sapiens, NCI-H1975, 72 h, read-out: Zah. (inhibition of proliferation)
Procedure: as §1, §2, §3, §4, §5

[6] = test system: NCI-H520; experiment: SRB anti-proliferative assay, NCI-H520, with CalcuSyn combination index (Example 1); settings: Homo sapiens, NCI-H520, 72 h, read-out: Zah. (inhibition of proliferation)
Procedure: as §1, §2, §3, §4, §5

[7] = test system: Hs683; experiment: SRB anti-proliferative assay, Hs683, molecular combination and nanoparticles, with combination index (Example III); settings: Homo sapiens, Hs 683, 72 h, read-out: Zah. (inhibition of proliferation)
Procedure: as §6, §7
as §3, with “After” for “Solutions of the compounds were diluted in the test medium-RPMI-1640 and Opti-MEM in a 1:1 ratio, and the medium was supplemented with 2 mM glutamine and 5% fetal bovine serum FBS. After”
as §4, §5

## C=CCNC1=C2C[C@@H](C)C[C@H](OC)[C@H](O)[C@@H](C)/C=C(\C)[C@H](OC(N)=O)[C@@H](OC)/C=C\C=C(/C)C(=O)NC(=CC1=O)C2=O [17AAG, 17-AAG (tanespimycin)]
[1]
  inhibition at 0.0032 µM: 3.3%
  inhibition at 0.01 µM: 3.1%
  inhibition at 0.0316 µM: 18.4%
  inhibition at 0.1 µM: 28.9%
  inhibition at 0.3163 µM: 38.7%
  inhibition at 1 µM: 62.9%
  inhibition at 3.1625 µM: 71.6%
  inhibition at 10.0005 µM: 81.5%
[2]
  inhibition at 0.0031 µM: 1.1%
  inhibition at 0.01 µM: 14%
  inhibition at 0.0314 µM: 40.3%
  inhibition at 0.1 µM: 48.5%
  inhibition at 0.3155 µM: 58.1%
  inhibition at 1 µM: 58.5%
  inhibition at 3.1546 µM: 60.7%
  inhibition at 10 µM: 76.6%
[3]
  inhibition at 0.0031 µM: 24.1%
  inhibition at 0.01 µM: 53.3%
  inhibition at 0.0314 µM: 83.2%
  inhibition at 0.1 µM: 89.2%
  inhibition at 0.3155 µM: 91.6%
  inhibition at 1 µM: 96.3%
  inhibition at 3.1546 µM: 97.1%
  inhibition at 10 µM: 97%
[4]; NCI-H226, read-out: Inhibition of cell proliferation (Zah.), single agent, 3.2 nM
  inhibition at 0.0032 µM: 10.4%
[4]; NCI-H226, read-out: Inhibition of cell proliferation (Zah.), single agent, 10 nM
  inhibition at 0.01 µM: 17.2%
[4]; NCI-H226, read-out: Inhibition of cell proliferation (Zah.), single agent, 31.6 nM
  inhibition at 0.0316 µM: 29.4%
[4]; NCI-H226, read-out: Inhibition of cell proliferation (Zah.), single agent, 100 nM
  inhibition at 0.1 µM: 51.4%
[4]; NCI-H226, read-out: Inhibition of cell proliferation (Zah.), single agent, 316.3 nM
  inhibition at 0.3163 µM: 59.1%
[4]; NCI-H226, read-out: Inhibition of cell proliferation (Zah.), single agent, 1000 nM
  inhibition at 1 µM: 65%
[4]; NCI-H226, read-out: Inhibition of cell proliferation (Zah.), single agent, 3162.5 nM
  inhibition at 3.1625 µM: 69.5%
[4]; NCI-H226, read-out: Inhibition of cell proliferation (Zah.), single agent, 10000.5 nM
  inhibition at 10.0005 µM: 68.4%
[4]; NCI-H226, read-out: Zah. (inhibition of cell proliferation), NCI-H226 (Table 35a), compound alone, 3.2 nM
  inhibition at 0.0032 µM: 10.4%
[4]; NCI-H226, read-out: Zah. (inhibition of cell proliferation), NCI-H226 (Table 35a), compound alone, 10 nM
  inhibition at 0.01 µM: 17.2%
[4]; NCI-H226, read-out: Zah. (inhibition of cell proliferation), NCI-H226 (Table 35a), compound alone, 31.6 nM
  inhibition at 0.0316 µM: 29.4%
[4]; NCI-H226, read-out: Zah. (inhibition of cell proliferation), NCI-H226 (Table 35a), compound alone, 100 nM
  inhibition at 0.1 µM: 51.4%
[4]; NCI-H226, read-out: Zah. (inhibition of cell proliferation), NCI-H226 (Table 35a), compound alone, 316.3 nM
  inhibition at 0.3163 µM: 59.1%
[4]; NCI-H226, read-out: Zah. (inhibition of cell proliferation), NCI-H226 (Table 35a), compound alone, 1000 nM
  inhibition at 1 µM: 65%
[4]; NCI-H226, read-out: Zah. (inhibition of cell proliferation), NCI-H226 (Table 35a), compound alone, 3162.5 nM
  inhibition at 3.1625 µM: 69.5%
[4]; NCI-H226, read-out: Zah. (inhibition of cell proliferation), NCI-H226 (Table 35a), compound alone, 10000.5 nM
  inhibition at 10.0005 µM: 68.4%
[4]; NCI-H226, read-out: Zah. (inhibition of cell proliferation), NCI-H226, compound alone, 3.2 nM
  inhibition at 0.0032 µM: -6.6%
[4]; NCI-H226, read-out: Zah. (inhibition of cell proliferation), NCI-H226, compound alone, 10 nM
  inhibition at 0.01 µM: -4.6%
[4]; NCI-H226, read-out: Zah. (inhibition of cell proliferation), NCI-H226, compound alone, 31.6 nM
  inhibition at 0.0316 µM: 30.6%
[4]; NCI-H226, read-out: Zah. (inhibition of cell proliferation), NCI-H226, compound alone, 100 nM
  inhibition at 0.1 µM: 44.7%
[4]; NCI-H226, read-out: Zah. (inhibition of cell proliferation), NCI-H226, compound alone, 316.3 nM
  inhibition at 0.3163 µM: 49.3%
[4]; NCI-H226, read-out: Zah. (inhibition of cell proliferation), NCI-H226, compound alone, 1000 nM
  inhibition at 1 µM: 59%
[4]; NCI-H226, read-out: Zah. (inhibition of cell proliferation), NCI-H226, compound alone, 3162.5 nM
  inhibition at 3.1625 µM: 63.5%
[4]; NCI-H226, read-out: Zah. (inhibition of cell proliferation), NCI-H226, compound alone, 10000.5 nM
  inhibition at 10.0005 µM: 61.4%
[5]
  inhibition at 0.0031 µM: 10%
  inhibition at 0.01 µM: 25.2%
  inhibition at 0.0314 µM: 66.7%
  inhibition at 0.1 µM: 84.1%
  inhibition at 0.3155 µM: 87.6%
  inhibition at 1 µM: 88.5%
  inhibition at 3.1546 µM: 88.4%
  inhibition at 10 µM: 86.6%
[6]
  inhibition at 0.0031 µM: 5.9%
  inhibition at 0.01 µM: 15.3%
  inhibition at 0.03 µM: 28.3%
  inhibition at 0.1 µM: 48.1%
  inhibition at 0.3124 µM: 56.8%
  inhibition at 1 µM: 59.9%
  inhibition at 3.1392 µM: 63.5%
  inhibition at 10 µM: 65.8%
[7]
  inhibition at 0.0003163 µM: 8.3%
  inhibition at 0.001 µM: 50.3%
  inhibition at 0.0032 µM: 63%
  inhibition at 0.01 µM: 93.9%
  inhibition at 0.0316 µM: 79.2%
  inhibition at 0.1 µM: 82%
  inhibition at 0.3163 µM: 91%
  inhibition at 1 µM: 94.3%
